Measured values reported in ChEMBL document CHEMBL1909046, “DrugMatrix in vitro pharmacology data”.

Legend:
[1] = DRUGMATRIX: GABAA, Muscimol, Central radioligand binding (ligand: [3H] Muscimol); type: cell membranes, Rattus norvegicus, Wistar, Brain, Membrane; conditions: Not Active = under 50% inhibition at 10 µM
[2] = target: 5-hydroxytryptamine receptor 1B (Rattus norvegicus, UniProt P28564); type: cell membranes, Wistar, Cerebral cortex, Membrane; further: in other assays of this panel Not Active means under 50% inhibition at 10 µM
5-hydroxytryptamine receptor 1B, sequence (P28564 whole entry): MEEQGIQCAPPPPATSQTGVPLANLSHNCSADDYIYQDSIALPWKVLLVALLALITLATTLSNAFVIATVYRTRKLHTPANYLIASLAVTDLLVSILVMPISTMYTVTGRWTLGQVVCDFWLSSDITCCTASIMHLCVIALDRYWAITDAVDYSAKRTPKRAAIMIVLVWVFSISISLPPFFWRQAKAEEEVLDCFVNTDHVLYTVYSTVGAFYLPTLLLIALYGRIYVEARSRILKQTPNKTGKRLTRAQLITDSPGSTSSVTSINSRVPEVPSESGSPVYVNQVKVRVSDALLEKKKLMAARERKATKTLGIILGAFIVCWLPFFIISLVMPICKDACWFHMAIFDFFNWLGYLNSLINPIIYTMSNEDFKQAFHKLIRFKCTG

[3] = target: Aldo-keto reductase family 1 member B1 (Rattus norvegicus, UniProt P07943); test: biochemical; type: tissue-based, Lens of camera-type eye;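 further: inhibition of aldose reductase enzyme activity, measured with DL-glyceraldehyde as the substrate; in other assays of this panel Not Active means under 50% inhibition at 10 µM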
Glycine receptor = Glycine receptor (Rattus norvegicus, UniProt P22771+P24524+P07727+P20781); type: cell membranes, Wistar, Spinal cord, Membrane; further: in other assays of this panel Not Active means under 50% inhibition at 10 µM
[4] = target: Sodium-dependent dopamine transporter (Homo sapiens, UniProt Q01959); test: DRUGMATRIX: Dopamine Transporter radioligand binding (ligand: [125I] RTI-55); type: cell membranes, CHO-K1, Membrane; conditions: cho-k1; Not Active = under 50% inhibition at 10 µM
Sodium-dependent dopamine transporter, sequence (Q01959 whole entry): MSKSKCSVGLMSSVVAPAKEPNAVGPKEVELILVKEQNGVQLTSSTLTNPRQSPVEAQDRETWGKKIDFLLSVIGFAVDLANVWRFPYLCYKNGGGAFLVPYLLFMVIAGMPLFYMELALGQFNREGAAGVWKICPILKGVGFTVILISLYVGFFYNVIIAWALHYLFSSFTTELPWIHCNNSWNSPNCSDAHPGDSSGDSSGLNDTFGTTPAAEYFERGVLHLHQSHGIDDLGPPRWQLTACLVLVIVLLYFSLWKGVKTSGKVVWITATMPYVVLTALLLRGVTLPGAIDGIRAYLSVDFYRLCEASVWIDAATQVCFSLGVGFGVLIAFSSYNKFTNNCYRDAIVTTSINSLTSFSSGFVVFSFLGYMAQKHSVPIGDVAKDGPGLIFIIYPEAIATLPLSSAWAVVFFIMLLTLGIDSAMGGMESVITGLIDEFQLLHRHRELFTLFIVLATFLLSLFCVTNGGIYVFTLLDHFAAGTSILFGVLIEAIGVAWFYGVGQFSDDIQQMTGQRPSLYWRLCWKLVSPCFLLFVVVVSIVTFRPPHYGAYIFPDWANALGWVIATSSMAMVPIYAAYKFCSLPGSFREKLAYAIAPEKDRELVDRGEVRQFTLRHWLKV

[5] = target: Protein kinase C alpha type (Homo sapiens, UniProt P17252); type: cell-based; conditions: sf9;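 further: inhibition of PKCalpha kinase activity measured in an enzyme assay with histone as the phosphorylation substrate; in other assays of this panel Not Active means under 50% inhibition at 10 µM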
[6] = DRUGMATRIX: GABAA, Chloride Channel, TBOB radioligand binding (ligand: [3H] TBOB); type: cell membranes, Rattus norvegicus, Wistar, Cerebral cortex, Membrane; conditions: Not Active = under 50% inhibition at 10 µM

Cc1ncc([N+](=O)[O-])n1CCO [METRONIDAZOLE]
Not Active: IC50 [1] | Ki [1] | IC50 [2] | IC50 [3] | IC50 (Glycine receptor) | IC50 [4] | IC50 [5] | IC50 [6] | Ki [6]

CC(C)(C(=O)c1cccnc1)c1cccnc1 [METYRAPONE]
Not Active: IC50 [1] | Ki [1] | IC50 [2] | IC50 [3] | IC50 (Glycine receptor) | IC50 [4] | IC50 [5] | IC50 [6] | Ki [6]

Oc1ccc(OCc2ccccc2)cc1 [MONOBENZONE]
Not Active: IC50 [1] | Ki [1] | IC50 [2] | IC50 [3] | IC50 (Glycine receptor) | IC50 [4] | IC50 [5] | IC50 [6] | Ki [6]

CC(C)(Oc1ccc(C2CCCc3ccccc32)cc1)C(=O)O (configuration not stated) [NAFENOPIN]
Not Active: IC50 [1] | Ki [1] | IC50 [2] | IC50 [3] | IC50 (Glycine receptor) | IC50 [4] | IC50 [5] | IC50 [6] | Ki [6]

COc1ccc2cc([C@H](C)C(=O)O)ccc2c1 [NAPROXEN]
Not Active: IC50 [1] | Ki [1] | IC50 [2] | IC50 [3] | IC50 (Glycine receptor) | IC50 [4] | IC50 [5] | IC50 [6] | Ki [6]

CC(C)[C@H]1CC[C@H](C(=O)N[C@H](Cc2ccccc2)C(=O)O)CC1 [NATEGLINIDE]
Not Active: IC50 [1] | Ki [1] | IC50 [2] | IC50 [3] | IC50 (Glycine receptor) | IC50 [4] | IC50 [5] | IC50 [6] | Ki [6]

CCN[C@@H]1C[C@H](N)[C@@H](O[C@H]2OC(CN)=CC[C@H]2N)[C@H](O)[C@H]1O[C@H]1OC[C@](C)(O)[C@H](NC)[C@H]1O [NETILMICIN]
Not Active: IC50 [1] | Ki [1] | IC50 [2] | IC50 [3] | IC50 (Glycine receptor) | IC50 [4] | IC50 [5] | IC50 [6] | Ki [6]

COC(=O)C1=C(C)NC(C)=C(C(=O)OCC(C)C)C1c1ccccc1[N+](=O)[O-] (configuration not stated) [NISOLDIPINE]
Not Active: IC50 [1] | Ki [1] | IC50 [2] | IC50 [3] | IC50 (Glycine receptor) | IC50 [4] | IC50 [5] | IC50 [6] | Ki [6]

CCOC(=O)C1=C(C)NC(C)=C(C(=O)OC)C1c1cccc([N+](=O)[O-])c1 (configuration not stated) [NITRENDIPINE]
Not Active: IC50 [1] | Ki [1] | IC50 [2] | IC50 [3] | IC50 (Glycine receptor) | IC50 [4] | IC50 [5] | IC50 [6] | Ki [6]

C#C[C@]1(OC(C)=O)CC[C@H]2[C@@H]3CCC4=CC(=O)CC[C@@H]4[C@H]3CC[C@@]21C [NORETHINDRONE ACETATE]
Not Active: IC50 [1] | Ki [1] | IC50 [2] | IC50 [3] | IC50 (Glycine receptor) | IC50 [4] | IC50 [5] | IC50 [6] | Ki [6]

COc1ccc2[nH]c([S+]([O-])Cc3ncc(C)c(OC)c3C)nc2c1 (configuration not stated) [OMEPRAZOLE]
Not Active: IC50 [1] | Ki [1] | IC50 [2] | IC50 [3] | IC50 (Glycine receptor) | IC50 [4] | IC50 [5] | IC50 [6] | Ki [6]

Cc1nccn1CC1CCc2c(c3ccccc3n2C)C1=O (configuration not stated) [ONDANSETRON]
Not Active: IC50 [1] | Ki [1] | IC50 [2] | IC50 [3] | IC50 (Glycine receptor) | IC50 [4] | IC50 [5] | IC50 [6] | Ki [6]

CCn1cc(C(=O)O)c(=O)c2cc(F)c(N3CCN(C)CC3)cc21 [PEFLOXACIN]
Not Active: IC50 [1] | Ki [1] | IC50 [2] | IC50 [3] | IC50 (Glycine receptor) | IC50 [4] | IC50 [5] | IC50 [6] | Ki [6]

CCCCOc1ccc(OCCCN2CCOCC2)cc1 [PRAMOXINE]
Not Active: IC50 [1] | Ki [1] | IC50 [2] | IC50 [3] | IC50 (Glycine receptor) | IC50 [4] | IC50 [5] | IC50 [6] | Ki [6]

O=C(C1CCCCC1)N1CC(=O)N2CCc3ccccc3C2C1 (configuration not stated) [PRAZIQUANTEL]
Not Active: IC50 [1] | Ki [1] | IC50 [2] | IC50 [3] | IC50 (Glycine receptor) | IC50 [4] | IC50 [5] | IC50 [6] | Ki [6]

CCN(CC)CCOC(=O)c1ccc(N)cc1 [PROCAINE]
Not Active: IC50 [1] | Ki [1] | IC50 [2] | IC50 [3] | IC50 (Glycine receptor) | IC50 [4] | IC50 [5] | IC50 [6] | Ki [6]

CCCN(CCC)C(=O)C(CCC(=O)O)NC(=O)c1ccccc1 (configuration not stated) [PROGLUMIDE]
Not Active: IC50 [1] | Ki [1] | IC50 [2] | IC50 [3] | IC50 (Glycine receptor) | IC50 [4] | IC50 [5] | IC50 [6] | Ki [6]

NC(=O)c1cnccn1 [PYRAZINAMIDE]
Not Active: IC50 [1] | Ki [1] | IC50 [2] | IC50 [3] | IC50 (Glycine receptor) | IC50 [4] | IC50 [5] | IC50 [6] | Ki [6]

OC(CCN1CCCCC1)(c1ccccc1)C1CCCCC1 (configuration not stated) [TRIHEXYPHENIDYL]
Not Active: IC50 [1] | Ki [1] | IC50 [2] | IC50 [3] | IC50 (Glycine receptor) | IC50 [4] | IC50 [5] | IC50 [6] | Ki [6]

Cc1cc2cc3c(C)cc(=O)oc3c(C)c2o1 [TRIOXSALEN]
Not Active: IC50 [1] | Ki [1] | IC50 [2] | IC50 [3] | IC50 (Glycine receptor) | IC50 [4] | IC50 [5] | IC50 [6] | Ki [6]

CCCC(CCC)C(=O)O [VALPROIC ACID]
Not Active: IC50 [1] | Ki [1] | IC50 [2] | IC50 [3] | IC50 (Glycine receptor) | IC50 [4] | IC50 [5] | IC50 [6] | Ki [6]

CCC1=C[C@@H]2CN(C1)Cc1c([nH]c3ccccc13)[C@@](C(=O)OC)(c1cc3c(cc1OC)N(C)[C@H]1[C@@](O)(C(=O)OC)[C@H](OC(C)=O)[C@]4(CC)C=CCN5CC[C@]31[C@@H]54)C2 [VINORELBINE]
Not Active: IC50 [1] | Ki [1] | IC50 [2] | IC50 [3] | IC50 (Glycine receptor) | IC50 [4] | IC50 [5] | IC50 [6] | Ki [6]

CADMIUM DICHLORIDE
Not Active: IC50 [1] | Ki [1] | IC50 [2] | Ki [2] | IC50 [3] | Ki [3] | IC50 (Glycine receptor) | Ki (Glycine receptor) | IC50 [4] | Ki [4] | IC50 [5] | Ki [5] | IC50 [6] | Ki [6]
